Results taken from ChEMBL document CHEMBL4184081, “Discovery of potent and selective inhibitors of calmodulin-dependent kinase II (CaMKII)” (Bioorg Med Chem Lett, 2018).
Converted amounts (≈) assume the structure as drawn.

Tests used:
[1] = target: Voltage-gated inwardly rectifying potassium channel KCNH2 (Homo sapiens, UniProt Q12809); assay: Inhibition of human ERG
[2] = Half life in rat liver microsomes; type: ADME, microsome
[3] = Thermodynamic aqueous solubility of the compound in pH 7.2; type: physicochemical; conditions: buffer, read-out: Therm_solubility
[4] = Clearance in rat at 1 mg/kg, iv; type: ADME, organism-based; conditions: in vivo
[5] = AUC (0 to infinity) in rat at 5 mg/kg, po; type: ADME, organism-based; set-up: dose 5 mg/kg, time infinity, route oral; conditions: in vivo
Cytochrome P450 2C19 = Cytochrome P450 2C19 (Homo sapiens, UniProt P33261); assay: Inhibition of CYP2C19 (unknown origin); type: ADME
[6] = Oral bioavailability in rat at 5 mg/kg; type: ADME, organism-based; conditions: in vivo
[7] = Unbound plasma concentration in dog; type: ADME, organism-based, Canis lupus familiaris
[8] = Half life in human liver microsomes; type: ADME, microsome
[9] = Unbound plasma concentration in rat; type: ADME, organism-based
[10] = Volume of distribution at steady state in rat at 1 mg/kg, iv; type: ADME, organism-based; conditions: in vivo, read-out: Vdss
Cytochrome P450 1A2 = target: T1, Cytochrome P450 1A2 (Homo sapiens, UniProt P05177); assay: Inhibition of CYP1A2 (unknown origin); type: ADME
T1 sequence (P05177 whole entry): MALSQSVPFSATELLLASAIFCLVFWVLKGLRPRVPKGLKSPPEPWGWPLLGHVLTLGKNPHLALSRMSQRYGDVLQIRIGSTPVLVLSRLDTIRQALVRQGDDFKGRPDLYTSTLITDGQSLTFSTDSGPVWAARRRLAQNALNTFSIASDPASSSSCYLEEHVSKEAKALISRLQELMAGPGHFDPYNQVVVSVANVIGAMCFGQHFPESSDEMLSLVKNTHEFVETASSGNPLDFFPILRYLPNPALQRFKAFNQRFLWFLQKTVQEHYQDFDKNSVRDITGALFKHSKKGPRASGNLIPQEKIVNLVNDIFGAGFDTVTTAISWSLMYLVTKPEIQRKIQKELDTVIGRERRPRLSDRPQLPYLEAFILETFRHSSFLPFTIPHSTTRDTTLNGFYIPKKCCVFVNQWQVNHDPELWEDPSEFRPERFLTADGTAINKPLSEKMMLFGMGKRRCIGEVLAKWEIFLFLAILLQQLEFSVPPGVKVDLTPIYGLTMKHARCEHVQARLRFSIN

Cytochrome P450 2D6 = Cytochrome P450 2D6 (Homo sapiens, UniProt P10635); assay: Inhibition of CYP2D6 (unknown origin); type: ADME
CaM kinase II alpha/beta = CaM kinase II alpha/beta (Rattus norvegicus, UniProt P08413+P11275); assay: Inhibition of CaMK2alpha/beta in neonatal rat cortical neurons assessed as phospholamban phosphorylation after 4 hrs by Hoechst 33342 fluorescence-based assay; type: protein-complex assay
[11] = Half life in rat at 1 mg/kg, iv; type: ADME, organism-based; conditions: in vivo
Cytochrome P450 2C9 = Cytochrome P450 2C9 (Homo sapiens, UniProt P11712); assay: Inhibition of CYP2C9 (unknown origin); type: ADME
[12] = target: CaM kinase II delta/gamma (Rattus norvegicus, UniProt P11730+P15791); assay: Inhibition of CaMK2gamma/delta in neonatal rat ventricular myocytes assessed as phospholamban phosphorylation after 4 hrs by Hoechst 33342 fluorescence based assay; type: cell-based
[13] = Thermodynamic aqueous solubility of the compound in pH 2.2; type: physicochemical; conditions: buffer, read-out: Therm_solubility
[14] = Half life in dog liver microsomes; type: ADME, Canis lupus familiaris, microsome
Cytochrome P450 3A4 = Cytochrome P450 3A4 (Homo sapiens, UniProt P08684); assay: Inhibition of CYP3A4 (unknown origin); type: ADME
[15] = Unbound plasma concentration in human; type: ADME, organism-based

Chain of Voltage-gated inwardly rectifying potassium channel KCNH2 (Q12809 whole entry): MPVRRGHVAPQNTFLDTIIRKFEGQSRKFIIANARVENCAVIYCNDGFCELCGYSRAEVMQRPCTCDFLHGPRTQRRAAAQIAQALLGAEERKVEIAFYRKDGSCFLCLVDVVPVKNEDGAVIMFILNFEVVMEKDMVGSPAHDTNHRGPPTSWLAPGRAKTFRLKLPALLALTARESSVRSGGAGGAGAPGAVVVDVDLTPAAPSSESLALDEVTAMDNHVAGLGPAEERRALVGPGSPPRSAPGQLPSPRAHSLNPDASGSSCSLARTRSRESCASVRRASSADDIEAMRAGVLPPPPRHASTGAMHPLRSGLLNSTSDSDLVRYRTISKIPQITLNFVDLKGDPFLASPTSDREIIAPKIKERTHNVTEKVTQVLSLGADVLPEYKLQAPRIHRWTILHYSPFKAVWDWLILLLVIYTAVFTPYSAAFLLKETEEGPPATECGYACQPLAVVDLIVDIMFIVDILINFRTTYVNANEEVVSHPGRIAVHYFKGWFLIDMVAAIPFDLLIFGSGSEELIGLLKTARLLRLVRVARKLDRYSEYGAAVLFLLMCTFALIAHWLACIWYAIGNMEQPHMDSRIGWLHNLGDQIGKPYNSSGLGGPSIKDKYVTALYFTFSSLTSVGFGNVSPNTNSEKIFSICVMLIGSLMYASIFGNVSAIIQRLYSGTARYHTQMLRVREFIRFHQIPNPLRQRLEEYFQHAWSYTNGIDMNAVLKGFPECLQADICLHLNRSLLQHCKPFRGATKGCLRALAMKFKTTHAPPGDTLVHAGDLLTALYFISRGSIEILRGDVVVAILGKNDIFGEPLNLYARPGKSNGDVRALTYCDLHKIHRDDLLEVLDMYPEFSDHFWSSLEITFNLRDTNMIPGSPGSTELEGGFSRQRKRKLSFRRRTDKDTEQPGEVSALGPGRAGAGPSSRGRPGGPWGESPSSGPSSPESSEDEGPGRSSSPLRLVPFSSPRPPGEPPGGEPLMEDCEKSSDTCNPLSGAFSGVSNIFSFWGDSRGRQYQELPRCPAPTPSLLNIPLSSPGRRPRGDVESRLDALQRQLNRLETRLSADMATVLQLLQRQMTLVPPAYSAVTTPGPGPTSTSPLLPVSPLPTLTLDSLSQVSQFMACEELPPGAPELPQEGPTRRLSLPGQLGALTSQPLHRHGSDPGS
Chain of CaM kinase II delta/gamma (P15791 whole entry): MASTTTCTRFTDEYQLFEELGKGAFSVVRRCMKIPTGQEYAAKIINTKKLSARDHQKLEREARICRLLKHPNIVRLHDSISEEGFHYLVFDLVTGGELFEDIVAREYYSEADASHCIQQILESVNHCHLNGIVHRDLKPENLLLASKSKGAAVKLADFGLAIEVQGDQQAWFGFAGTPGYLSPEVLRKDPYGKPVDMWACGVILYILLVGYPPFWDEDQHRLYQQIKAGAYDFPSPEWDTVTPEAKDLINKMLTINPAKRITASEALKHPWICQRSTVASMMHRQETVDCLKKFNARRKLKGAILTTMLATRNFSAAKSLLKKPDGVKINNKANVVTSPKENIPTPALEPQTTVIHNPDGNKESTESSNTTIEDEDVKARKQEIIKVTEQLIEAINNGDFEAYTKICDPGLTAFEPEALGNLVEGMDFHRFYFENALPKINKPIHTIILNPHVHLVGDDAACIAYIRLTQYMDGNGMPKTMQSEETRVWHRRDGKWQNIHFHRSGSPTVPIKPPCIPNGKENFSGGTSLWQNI
Chain of CaM kinase II delta/gamma (P11730 whole entry): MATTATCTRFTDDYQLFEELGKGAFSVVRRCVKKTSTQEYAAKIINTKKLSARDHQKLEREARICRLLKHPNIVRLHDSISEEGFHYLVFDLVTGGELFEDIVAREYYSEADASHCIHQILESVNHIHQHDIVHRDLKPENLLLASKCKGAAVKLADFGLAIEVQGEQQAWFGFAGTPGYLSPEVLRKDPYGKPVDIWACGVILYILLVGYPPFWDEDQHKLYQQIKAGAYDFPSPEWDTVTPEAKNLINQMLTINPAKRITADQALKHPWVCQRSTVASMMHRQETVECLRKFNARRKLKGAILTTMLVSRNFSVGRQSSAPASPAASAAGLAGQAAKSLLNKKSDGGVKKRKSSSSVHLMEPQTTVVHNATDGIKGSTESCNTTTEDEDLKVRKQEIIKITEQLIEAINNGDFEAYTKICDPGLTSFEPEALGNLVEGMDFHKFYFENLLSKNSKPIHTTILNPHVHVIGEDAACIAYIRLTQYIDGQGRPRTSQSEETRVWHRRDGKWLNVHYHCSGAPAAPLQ
Chain of CaM kinase II alpha/beta (P11275 whole entry): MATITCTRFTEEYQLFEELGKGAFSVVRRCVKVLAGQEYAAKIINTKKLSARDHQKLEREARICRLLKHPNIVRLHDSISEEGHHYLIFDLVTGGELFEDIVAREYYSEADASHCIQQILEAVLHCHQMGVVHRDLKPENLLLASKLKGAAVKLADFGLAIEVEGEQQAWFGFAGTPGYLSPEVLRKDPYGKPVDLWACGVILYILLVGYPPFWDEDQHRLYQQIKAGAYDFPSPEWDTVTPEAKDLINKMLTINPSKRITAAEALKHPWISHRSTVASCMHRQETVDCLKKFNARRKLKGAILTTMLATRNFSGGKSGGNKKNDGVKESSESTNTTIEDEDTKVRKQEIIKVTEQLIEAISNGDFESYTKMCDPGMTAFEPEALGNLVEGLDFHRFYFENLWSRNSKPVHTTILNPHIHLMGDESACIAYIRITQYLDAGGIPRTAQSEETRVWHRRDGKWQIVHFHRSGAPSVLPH
Chain of CaM kinase II alpha/beta (P08413 whole entry): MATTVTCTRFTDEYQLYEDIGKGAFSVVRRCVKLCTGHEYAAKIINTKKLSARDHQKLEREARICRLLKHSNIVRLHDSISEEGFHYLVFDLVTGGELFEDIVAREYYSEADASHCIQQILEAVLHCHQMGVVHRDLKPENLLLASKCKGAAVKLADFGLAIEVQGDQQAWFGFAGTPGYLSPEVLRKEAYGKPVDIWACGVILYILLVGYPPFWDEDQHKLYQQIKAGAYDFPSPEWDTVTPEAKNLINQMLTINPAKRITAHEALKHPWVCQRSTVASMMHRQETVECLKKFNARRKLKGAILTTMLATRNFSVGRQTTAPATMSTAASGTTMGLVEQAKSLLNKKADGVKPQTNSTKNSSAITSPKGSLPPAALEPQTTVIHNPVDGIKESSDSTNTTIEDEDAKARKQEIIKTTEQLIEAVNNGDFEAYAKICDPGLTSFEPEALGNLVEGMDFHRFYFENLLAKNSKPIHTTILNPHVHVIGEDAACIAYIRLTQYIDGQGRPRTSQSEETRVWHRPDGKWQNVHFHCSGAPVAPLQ
Chain of Cytochrome P450 2C19 (P33261 whole entry): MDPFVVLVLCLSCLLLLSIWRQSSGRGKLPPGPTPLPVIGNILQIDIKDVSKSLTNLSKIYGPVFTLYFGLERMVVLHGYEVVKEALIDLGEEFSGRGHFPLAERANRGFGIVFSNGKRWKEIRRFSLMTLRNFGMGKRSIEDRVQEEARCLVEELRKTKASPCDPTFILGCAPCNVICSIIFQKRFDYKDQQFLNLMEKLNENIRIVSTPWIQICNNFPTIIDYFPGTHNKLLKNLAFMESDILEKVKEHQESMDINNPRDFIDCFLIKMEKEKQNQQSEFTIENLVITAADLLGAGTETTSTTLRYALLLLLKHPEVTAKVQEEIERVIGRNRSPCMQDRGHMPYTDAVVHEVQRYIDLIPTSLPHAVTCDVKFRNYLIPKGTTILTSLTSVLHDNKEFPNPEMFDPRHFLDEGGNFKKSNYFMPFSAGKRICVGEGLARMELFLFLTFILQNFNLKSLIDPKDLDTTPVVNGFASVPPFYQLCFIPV
Chain of Cytochrome P450 3A4 (P08684 whole entry): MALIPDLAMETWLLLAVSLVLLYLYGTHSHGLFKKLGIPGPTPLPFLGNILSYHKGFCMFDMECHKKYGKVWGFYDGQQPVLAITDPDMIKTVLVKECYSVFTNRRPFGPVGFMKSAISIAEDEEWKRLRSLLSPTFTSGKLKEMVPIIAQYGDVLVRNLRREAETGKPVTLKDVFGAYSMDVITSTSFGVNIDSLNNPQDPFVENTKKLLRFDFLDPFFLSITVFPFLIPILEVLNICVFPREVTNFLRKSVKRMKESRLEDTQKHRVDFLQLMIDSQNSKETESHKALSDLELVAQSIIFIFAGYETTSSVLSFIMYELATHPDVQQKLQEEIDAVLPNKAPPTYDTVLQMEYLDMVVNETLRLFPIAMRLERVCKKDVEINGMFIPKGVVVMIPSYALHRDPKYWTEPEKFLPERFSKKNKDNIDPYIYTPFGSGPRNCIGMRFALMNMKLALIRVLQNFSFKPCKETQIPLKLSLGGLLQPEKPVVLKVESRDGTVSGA
Chain of Cytochrome P450 2C9 (P11712 whole entry): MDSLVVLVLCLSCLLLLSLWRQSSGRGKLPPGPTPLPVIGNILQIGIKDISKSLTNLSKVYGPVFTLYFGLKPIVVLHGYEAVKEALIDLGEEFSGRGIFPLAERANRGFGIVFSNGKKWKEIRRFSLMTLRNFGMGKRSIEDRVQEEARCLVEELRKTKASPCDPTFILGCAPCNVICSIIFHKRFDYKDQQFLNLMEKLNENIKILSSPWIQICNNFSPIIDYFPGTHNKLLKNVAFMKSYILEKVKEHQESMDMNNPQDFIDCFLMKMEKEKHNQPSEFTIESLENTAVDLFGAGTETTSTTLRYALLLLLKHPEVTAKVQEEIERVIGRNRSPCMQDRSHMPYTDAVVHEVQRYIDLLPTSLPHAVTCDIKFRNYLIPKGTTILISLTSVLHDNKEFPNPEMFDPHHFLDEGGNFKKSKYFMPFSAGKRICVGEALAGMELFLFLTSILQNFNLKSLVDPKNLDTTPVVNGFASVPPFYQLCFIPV

half-life [2]	solubility thermodynamic [3]	clearance [4]	fraction unbound [7]	half-life [8]	fraction unbound [9]	Vd [10]	EC50 (CaM kinase II alpha/beta)	half-life [11]	EC50 [12]	solubility thermodynamic [13]	half-life [14]	fraction unbound [15]	Compound	IC50 [1]	further results
													CCc1cc(C(=O)NC[C@H](C)N(CC)CC)cc(-c2cnn3ccc(-c4cccs4)nc23)n1	3.28 µM	
													CCN(CC)[C@@H](C)CNC(=O)c1ccnc(-c2cnn3ccc(-c4cccs4)nc23)c1	0.718 µM	
61 min	0.2 mg/mL (≈ 0.385 mM)	1.53 L/h/kg	0.159	62 min	0.151	7.34 L/kg	0.12 µM	258 min	0.0074 µM	> 20 mg/mL	43 min	0.071	CCN(CC)[C@@H](C)CNC(=O)c1cc(-c2cnn3ccc(-c4cccs4)nc23)nc(N2CC(OC)C2)c1		AUC(0-inf) [5]: 3000 nM·h; IC50 (Cytochrome P450 2C19): > 25 µM; bioavailability [6]: 73%; IC50 (Cytochrome P450 1A2): > 25 µM; IC50 (Cytochrome P450 2D6): > 25 µM; IC50 (Cytochrome P450 2C9): > 25 µM; IC50 (Cytochrome P450 3A4): > 25 µM
48 min	8.4 mg/mL (≈ 16.6 mM)	4.85 L/h/kg	0.291	58 min	0.363	22.1 L/kg	0.274 µM	353 min	0.0062 µM	15 mg/mL (≈ 29.7 mM)	27 min	0.177	CCN(CC)[C@@H](C)CNC(=O)c1cc(-c2cnn3ccc(-c4cccs4)nc23)nc(N2CC(O)C2)c1	> 30 µM	
													CCN(CC)CCNC(=O)c1ccnc(-c2cnn3ccc(-c4cccs4)nc23)c1	1.17 µM	
